Assays:
wheat = assay: Test A preemergence; assay type: in vivo, Triticum aestivum; conditions: preemergence; for Wheat plant response rating (0 to 100 scale): 125 g ai/ha, visual injury approx. 10 days after treatment; for Wheat plant response rating: 500 g ai/ha, visual injury after approx. 10 days, 0 to 100 scale (0 no effect, 100 complete control)
Summary of the method: (§1)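 Seeds were sown in a loam soil–sand blend and given a directed soil spray preemergence; postemergence plants at 2–10 cm, one- to two-leaf stage, were sprayed with compound in non-phytotoxic solvent with surfactant. After about 10 days in a greenhouse, injury was visually rated against untreated controls (0 = no effect, 100 = complete control).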

corn = assay: Test A preemergence; assay type: in vivo, Zea mays; conditions: preemergence; for Corn plant response rating (0 to 100 scale): 125 g ai/ha, visual injury approx. 10 days after treatment; for Corn plant response rating: 500 g ai/ha, visual injury after approx. 10 days, 0 to 100 scale (0 no effect, 100 complete control)
Summary of the method: as §1

barnyardgrass = assay: Test A postemergence; assay type: in vivo, Echinochloa crus-galli
Summary of the method: as §1

foxtail, giant = assay: Test A postemergence; assay type: in vivo, Setaria faberii
Summary of the method: as §1

morningglory [1] = assay: Test A postemergence; assay type: in vivo, Ipomoea spp.; conditions: Postemergence
Summary of the method: as §1

pigweed [2] = assay: Test A postemergence; assay type: in vivo, Amaranthus retroflexus; conditions: Postemergence
Summary of the method: as §1

sedge, umbrella = assay: Test B flood; assay type: in vivo, Cyperus difformis; conditions: 250 g ai/ha, visual rating on 0 to 100 scale (0 no effect, 100 complete control), 13 to 15 days
Summary of the method: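 Each compound is applied to the floodwater of pots holding 2-leaf seedlings, water standing 3 cm over the soil throughout. Plants stay in a greenhouse 13 to 15 days before visual scoring against controls from 0 (no effect) to 100 (complete control).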

blackgrass = assay: Test C preemergence; assay type: in vivo, Alopecurus myosuroides; conditions: preemergence; for Plant response rating, Blackgrass: 125 g ai/ha, scale 0 to 100, 0 = no effect, 100 = complete control
Summary of the method: (§2)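 Visual control ratings on a 0–100 scale (100 = complete control) made against untreated controls after 13 to 15 days in greenhouse. Compounds applied in surfactant-containing solvent mixture, either preemergence to loam/sand-sown seeds or postemergence to 1- to 4-leaf plants (2–18 cm) in peat medium.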

morningglory [3] = assay: Test C preemergence; assay type: in vivo, Ipomoea coccinea; conditions: preemergence; for Plant response rating, Morningglory: 125 g ai/ha, scale 0 to 100, 0 = no effect, 100 = complete control
Summary of the method: as §2

nutsedge, yellow = assay: Test C preemergence; assay type: in vivo, Cyperus esculentus; conditions: preemergence; for Plant response rating, Nutsedge, Yellow: 125 g ai/ha, scale 0 to 100, 0 = no effect, 100 = complete control
Summary of the method: as §2

pigweed [4] = assay: Test C preemergence; assay type: in vivo, Amaranthus retroflexus; conditions: preemergence; for Plant response rating, Pigweed: 125 g ai/ha, scale 0 to 100, 0 = no effect, 100 = complete control
Summary of the method: as §2

soybean = assay: Test C preemergence; assay type: in vivo, Glycine max; conditions: preemergence; for Plant response rating, Soybean: 125 g ai/ha, scale 0 to 100, 0 = no effect, 100 = complete control
Summary of the method: as §2

velvetleaf = assay: Test C preemergence; assay type: in vivo, Abutilon theophrasti; conditions: preemergence; for Plant response rating, Velvetleaf: 125 g ai/ha, scale 0 to 100, 0 = no effect, 100 = complete control
Summary of the method: as §2

[5] = Postemergence, 500 g ai/ha, 0 to 100 scale (0 no effect, 100 complete control)
[6] = postemergence, 125 g ai/ha, about 10 days, visual rating on 0 to 100 scale (0 no effect, 100 complete control)
[7] = 125 g ai/ha, 0 to 100 scale, 0 no effect, 100 complete control
[8] = 500 g ai/ha, 0 to 100 scale (0 no effect, 100 complete control)
[9] = 31 g ai/ha, visual rating, scale 0 to 100 (0 no effect, 100 complete control), 13 to 15 days
[10] = 62 g ai/ha, scale 0 to 100 (0 no effect, 100 complete control), 13 to 15 days
[11] = 250 g ai/ha, scale 0 to 100, 0 is no effect, 100 is complete control

| Compound | Wheat plant response rating (0 to 100 scale) (wheat) | Wheat plant response rating (wheat) | Corn plant response rating (0 to 100 scale) (corn) | Corn plant response rating (corn) | Barnyardgrass plant response rating (barnyardgrass; [5]) | Barnyardgrass plant response rating (barnyardgrass; [6]) | Foxtail, Giant plant response rating (foxtail, giant; [5]) | Foxtail, Giant plant response rating (foxtail, giant; [6]) | Morningglory plant response rating (morningglory [1]; [7]) | Morningglory plant response rating (morningglory [1]; [8]) | Pigweed plant response rating (pigweed [2]; [7]) | Pigweed plant response rating (pigweed [2]; [8]) | Plant response rating, Sedge, Umbrella (sedge, umbrella) | Blackgrass plant response rating (blackgrass; [9]) | Blackgrass plant response rating (blackgrass; [10]) | Plant response rating, Blackgrass (blackgrass; 13 to 15 days) | Blackgrass plant response rating (blackgrass; [11]) | Morningglory plant response rating (morningglory [3]; [9]) | Morningglory plant response rating (morningglory [3]; [10]) | Plant response rating, Morningglory (morningglory [3]; 13 to 15 days) | also measured |
| --- | --- | --- | --- | --- | --- | --- | --- | --- | --- | --- | --- | --- | --- | --- | --- | --- | --- | --- | --- | --- | --- |
| CCOc1cc(C(=O)NC(C)C)nn1Cc1ccnc(C(F)(F)F)c1 [Compound 188] | 100 | 100 | 100 | 100 | 90 | 90 | 90 | 90 | 70 | 100 | 100 | 100 | 90 | 90 | 90 | 90 | 90 | 98 | 98 | 98 | Morningglory plant response rating (morningglory [3]; [11]): 100; Nutsedge, Yellow plant response rating (nutsedge, yellow; [9]): 30; Nutsedge, Yellow plant response rating (nutsedge, yellow; [10]): 65; Plant response rating, Nutsedge, Yellow (nutsedge, yellow; 13 to 15 days): 95; Nutsedge, Yellow plant response rating (nutsedge, yellow; [11]): 98; Pigweed plant response rating (pigweed [4]; [9]): 100; Pigweed plant response rating (pigweed [4]; [10]): 100; Plant response rating, Pigweed (pigweed [4]; 13 to 15 days): 100; Pigweed plant response rating (pigweed [4]; [11]): 100; Soybean plant response rating (soybean; [9]): 90; Soybean plant response rating (soybean; [10]): 90; Plant response rating, Soybean (soybean; 13 to 15 days): 95; Soybean plant response rating (soybean; [11]): 98; Velvetleaf plant response rating (velvetleaf; [9]): 100; Velvetleaf plant response rating (velvetleaf; [10]): 100; Plant response rating, Velvetleaf (velvetleaf; 13 to 15 days): 100; Velvetleaf plant response rating (velvetleaf; [11]): 100 |
| CCOc1cc(C(=O)NC2CC2)nn1Cc1ccnc(C(F)(F)F)c1 [Compound 189] | 90 | 100 | 80 | 100 | 90 | 90 | 90 | 90 | 90 | 100 | 80 | 100 | 90 | 90 | 90 | 90 | 90 | 95 | 98 | 98 | Morningglory plant response rating (morningglory [3]; [11]): 100; Nutsedge, Yellow plant response rating (nutsedge, yellow; [9]): 25; Nutsedge, Yellow plant response rating (nutsedge, yellow; [10]): 80; Plant response rating, Nutsedge, Yellow (nutsedge, yellow; 13 to 15 days): 85; Nutsedge, Yellow plant response rating (nutsedge, yellow; [11]): 95; Pigweed plant response rating (pigweed [4]; [9]): 100; Pigweed plant response rating (pigweed [4]; [10]): 100; Plant response rating, Pigweed (pigweed [4]; 13 to 15 days): 100; Pigweed plant response rating (pigweed [4]; [11]): 100; Soybean plant response rating (soybean; [9]): 20; Soybean plant response rating (soybean; [10]): 95; Plant response rating, Soybean (soybean; 13 to 15 days): 98; Soybean plant response rating (soybean; [11]): 98; Velvetleaf plant response rating (velvetleaf; [9]): 98; Velvetleaf plant response rating (velvetleaf; [10]): 100; Plant response rating, Velvetleaf (velvetleaf; 13 to 15 days): 100; Velvetleaf plant response rating (velvetleaf; [11]): 100 |
| CCONC(=O)c1cc(OCC)n(Cc2ccnc(C(F)(F)F)c2)n1 [Compound 195] | 80 | 100 | 0 | 90 | 90 | 70 | 100 | 80 | 70 | 100 | 100 | 100 | 95 | 5 | 90 | 90 | 90 | 35 | 100 | 100 | Morningglory plant response rating (morningglory [3]; [11]): 100; Nutsedge, Yellow plant response rating (nutsedge, yellow; [9]): 20; Nutsedge, Yellow plant response rating (nutsedge, yellow; [10]): 85; Plant response rating, Nutsedge, Yellow (nutsedge, yellow; 13 to 15 days): 85; Nutsedge, Yellow plant response rating (nutsedge, yellow; [11]): 95; Pigweed plant response rating (pigweed [4]; [10]): 98; Plant response rating, Pigweed (pigweed [4]; 13 to 15 days): 100; Pigweed plant response rating (pigweed [4]; [11]): 100; Soybean plant response rating (soybean; [9]): 5; Soybean plant response rating (soybean; [10]): 5; Plant response rating, Soybean (soybean; 13 to 15 days): 25; Soybean plant response rating (soybean; [11]): 60; Velvetleaf plant response rating (velvetleaf; [9]): 15; Velvetleaf plant response rating (velvetleaf; [10]): 60; Plant response rating, Velvetleaf (velvetleaf; 13 to 15 days): 100; Velvetleaf plant response rating (velvetleaf; [11]): 100 |
| CCNC(=O)c1cc(CC)n(Cc2ccnc(C(F)(F)F)c2)n1 [Compound 196] | 20 | 100 | 10 | 90 | 90 | 90 | 100 | 90 | 90 | 100 | 100 | 100 | 70 | 85 | 90 | 90 | 90 | 98 | 98 | 100 | Morningglory plant response rating (morningglory [3]; [11]): 100; Nutsedge, Yellow plant response rating (nutsedge, yellow; [9]): 15; Nutsedge, Yellow plant response rating (nutsedge, yellow; [10]): 65; Plant response rating, Nutsedge, Yellow (nutsedge, yellow; 13 to 15 days): 80; Nutsedge, Yellow plant response rating (nutsedge, yellow; [11]): 90; Pigweed plant response rating (pigweed [4]; [9]): 98; Pigweed plant response rating (pigweed [4]; [10]): 98; Plant response rating, Pigweed (pigweed [4]; 13 to 15 days): 100; Pigweed plant response rating (pigweed [4]; [11]): 100; Soybean plant response rating (soybean; [9]): 40; Soybean plant response rating (soybean; [10]): 55; Plant response rating, Soybean (soybean; 13 to 15 days): 90; Soybean plant response rating (soybean; [11]): 98; Velvetleaf plant response rating (velvetleaf; [9]): 40; Velvetleaf plant response rating (velvetleaf; [10]): 100; Plant response rating, Velvetleaf (velvetleaf; 13 to 15 days): 100; Velvetleaf plant response rating (velvetleaf; [11]): 100 |
